The supplement of paper PMC10307832

Columns and labels:
Test in all cases: relative viability (nuclei count vs DMSO), 5 days (fraction); higher = more cells survive
[1] = compound: C1CNCCC1C2=CC(=NN2)C3=CC=NC=C3 + NC(=O)Nc1cc(-c2cccc(F)c2)sc1C(=O)N[C@H]1CCCNC1 [AZD7762] (partner 0.2 µM)
Summary of the method: (§1)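 Relative viability was taken as the ratio of nuclei in treated wells to nuclei in vehicle wells. Lung cancer cell lines in 1536-well plates received compounds by pin tool one day after seeding, either one drug alone or a fixed anchor-drug dose plus five library-drug doses (not always all listed) in √10 steps. Nuclei were counted on 4× images after 5 days of treatment, and values are medians of duplicate plates.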

[2] = compound: C1CNCCC1C2=CC(=NN2)C3=CC=NC=C3 + CC1(C)CCC(c2ccc(Cl)cc2)=C(CN2CCN(c3ccc(C(=O)NS(=O)(=O)c4ccc(N[C@H](CCN5CCOCC5)CSc5ccccc5)c(S(=O)(=O)C(F)(F)F)c4)cc3)CC2)C1 [Navitoclax] (partner 0.5 µM)
Summary of the method: as §1

[3] = compound: C[C@@H](N)c1ccc(C(=O)Nc2ccnc3[nH]ccc23)cc1 + CC(=O)c1c(C)c2cnc(Nc3ccc(N4CCNCC4)cn3)nc2n(C2CCCC2)c1=O [Palbociclib] (partner 0.5 µM)
Summary of the method: as §1

[4] = compound: O[C@H]1CC[C@H](Nc2ncc3nc(Nc4c(F)cc(F)cc4F)n([C@H]4CCOC4)c3n2)CC1 [Tanzisertib] + CC(=O)c1c(C)c2cnc(Nc3ccc(N4CCNCC4)cn3)nc2n(C2CCCC2)c1=O [Palbociclib] (partner 0.5 µM)
Summary of the method: as §1

Cell Line	relative viability ([1]; first compound 0.08 µM)	relative viability ([1]; first compound 0.8 µM)	relative viability ([1]; first compound 2.53 µM)	relative viability ([1]; first compound 8 µM)	relative viability ([2]; first compound 0.08 µM)	relative viability ([2]; first compound 0.8 µM)	relative viability ([2]; first compound 2.53 µM)	relative viability ([2]; first compound 8 µM)	relative viability ([3]; first compound 0.04 µM)	relative viability ([3]; first compound 0.1265 µM)	relative viability ([3]; first compound 0.4 µM)	relative viability ([3]; first compound 1.265 µM)	relative viability ([3]; first compound 4 µM)	relative viability ([4]; first compound 0.08 µM)	relative viability ([4]; first compound 0.253 µM)	relative viability ([4]; first compound 0.8 µM)	relative viability ([4]; first compound 2.53 µM)	relative viability ([4]; first compound 8 µM)
ChaGo-K-1	0.886	0.876	0.926	0.753	0.861	1.29	0.682	1.01	0.923	0.908	0.947	0.893	0.865	0.977	0.927	0.91	0.889	0.903
NCI-H1755	0.473	0.448	0.419	0.561	0.978	0.942	1.04	0.935	0.432	0.436	0.437	0.407	0.367	0.434	0.453	0.433	0.44	0.439
LC-2-ad	0.84	0.859	0.872	0.87	0.721	0.5	0.503	0.35	0.472	0.53	0.458	0.413	0.411	0.484	0.548	0.471	0.441	0.502
NCI-H1666	0.829	0.847	1.04	1	0.807	0.877	1.06	1.02	0.661	0.63	0.636	0.616	0.668	0.675	0.729	0.65	0.688	0.639
201T	0.645	0.65	0.654	0.562	1.25	1.15	1.2	1.18	0.367	0.342	0.376	0.359	0.415	0.369	0.375	0.35	0.342	0.334
NCI-H1395	0.389	0.437	0.405	0.398	1.15	0.976	1.23	1.13	0.583	0.639	0.597		0.577	0.71	0.574	0.607	0.618	0.632
LU99A	0.403	0.338	0.4	0.439	0.662	0.872	0.776	0.732		0.372	0.387	0.343	0.275	0.405	0.377	0.378	0.399	0.389
NCI-H1437	1.09	1.09	1.17	1.09	1.06	1.11	1.1	1.12	0.335	0.315	0.386	0.369	0.482	0.333	0.291	0.315	0.32	0.262
EKVX	0.754		0.704	0.701	1.03	0.713	1.07	0.96	0.413	0.415	0.432	0.38	0.28	0.455	0.388	0.363	0.414	0.355
LCLC-97TM1	0.27	0.239	0.248	0.332	0.432	0.385	0.396	0.68	0.276	0.217	0.341	0.257	0.309	0.222	0.243	0.215	0.204	0.229
NCI-H2170	0.746	0.909	0.949	0.897	0.472	0.697	0.72	0.698	0.423	0.412	0.423	0.417	0.395	0.415	0.39	0.36	0.428	0.406
NCI-H1793	0.369		0.615	0.61	0.305	0.331	0.414	0.526	0.348	0.295	0.355		0.385	0.306	0.326	0.347	0.293	0.303
NCI-H3122	0.948	1.06	0.966	1.01	0.98	1.05	0.979	1.03	0.221	0.188	0.23	0.243	0.221	0.23	0.187	0.213	0.159	0.206
PC-14	0.363	0.383	0.237	0.348	0.987	1.13	1.06	0.979	0.552	0.537	0.483		0.367	0.681	0.533	0.589	0.532	0.208
EPLC-272H	0.18	0.261	0.26	0.212	1.12	1.22	1.19	1.17	0.39	0.356	0.384		0.427	0.374	0.316	0.326	0.306	0.287
A-427	0.752	0.802	0.92	0.774	0.954	0.913	1.02	0.93	0.472	0.553	0.388	0.432	0.421	0.565	0.538	0.52	0.507	0.511
